Data as given in article PMC3671673, “In Vitro Morphological Assessment of Apoptosis Induced by Antiproliferative Constituents from the Rhizomes of Curcuma zedoaria” (Evidence-based Complementary and Alternative Medicine : eCAM, 2013).
In brackets after ≈: the same amount, converted by molar mass. Marks after values point to notes of the source that are not given here.

Key:
[1] = system: cervical carcinoma cell line (Ca Ski); assay: cells; format: cell-based; details: Homo sapiens, isolated compounds, 72 h, neutral red, mean ± SD of three replicates, read-out: IC50 (μg/mL) Ca Ski
Method: The human cancer cells KB, Ca Ski, MCF-7, HCT-116, A549, and noncancer human cell lines (MRC-5) were purchased from the American Tissue Culture Collection (ATCC, USA). The supplemented RPMI 1640 media and eagle minimum essential medium (EMEM) were purchased from Sigma-Aldrich, USA. The supplements or antibiotics such as foetal bovine serum (FBS), penicillin/streptomycin (P/S) (100 μg/mL), amphotericin B (50 μg/mL), and accutase were purchased from PAA Laboratories, Austria. Sodium pyruvate (11 mg/mL) purchased from Sigma-Aldrich, USA. The cells were cultured in a SHEL LAB water-jacketed CO2 incubator with […] tissue culture flasks (Nunc, Denmark), which was observed routinely under inverted microscope (Leica DMI3000 B, Germany) for any contamination and seeded into 96-well flat bottom microtiter plate (Nunc, Denmark). The extract or pure compounds was dissolved in dimethyl sulfoxide (DMSO, Molecular Biology Grade, >99.9%) from Sigma-Aldrich, USA. Microtiter plate incubator shaker (LT Biomax 500) was used and absorbance was measured at 540 nm using an ELISA microplate reader (EMax microplate reader of Molecular Devices, USA). MCF-7 and Ca Ski were cultured in RPMI 1640 media supplemented with 10% v/v FBS, P/S, and amphotericin B and MRC-5 in EMEM media with 10% v/v FBS, P/S, amphotericin B, and sodium pyruvate. The cells were cultured in tissue culture flask in 5% CO2 incubator kept at 37°C in a humidified atmosphere and observed routinely under inverted microscope from any contaminations. Each fresh medium was replaced every 2 or 3 days until cell confluence was achieved and the cells were detached by using accutase.
The in vitro cytotoxicity activity was performed using the neutral red cytotoxicity assay based on the initial protocol as described earlier with some modifications. Briefly, cells were detached from the tissue culture flask with 1.0 mL solution of accutase and PBS solution. The cell pellet was obtained by centrifugation at 1,000 rpm for 5 minutes. The density of the viable cells was counted by 0.4% of trypan blue exclusion in a haemocytometer. Cells were then plated in 96-well microtiter plate (Nunc), at a concentration of 1 × 10^4 cells/well and incubated in a CO2 incubator at 37°C to allow the cells to adhere. After 24 h, the cells were treated with six different concentrations, that is, 1, 10, 25, 50, 75, and 100 μg/mL of each tested agent in three replicates. The plates were incubated for 72 h at 37°C in a 5% CO2 incubator. The untreated cells were regarded as a negative control, whilst cells incubated only with DMSO (0.5%, v/v) were used as a vehicle control. No effect due to the DMSO was observed. Doxorubicin was used as the positive control. After 72 h, the old medium was substituted with fresh medium containing 50 μg/mL neutral red. The 96-well plates were placed into incubator for 3 h. This is to allow the uptake of the vital dye into the lysosomes of viable and undamaged cells. Then, the media was discarded and cells were washed with 200 μL of neutral red washing solution. The dye was eluted from the cells by adding neutral red resorb solution (200 μL). The plate was further incubated for 30 min with rapid agitation on a microtiter plate shaker. The optical density (OD) of the eluted dye was read at 540 nm using a microplate reader. The experiments were conducted in triplicates. The percentage of inhibition of each of the test samples was calculated according to the following formula using the OD values obtained: percentage of inhibition (%) = (OD control − OD sample)/OD control × 100%. The average of three replicates was then obtained. Cytotoxicity of each test agent is expressed as IC50 value. The IC50 value is the concentration of test agents that cause 50% inhibition or cell death, averaged from the three experiments. The IC50 for each extract was extrapolated from the graphs of the percentage inhibition versus concentration of test agents.

HCT-116 cells = assay: Morphological changes by phase contrast inverted microscope, HCT-116; format: cell-based, human; details: HCT-116, 48 h, 12.5-50 μg/mL, phase contrast 200x
Method: (§1) Observation of morphological changes of apoptotic cells was performed according to the method with slight modifications. Briefly, 5 × 10^5 cells were incubated for 48 hours with or without selected compounds at concentrations of 12.5, 25, 40, and 50 μg/mL in a 60 mm diameter tissue culture dishes. The medium was discarded and cells were washed once with PBS. The morphological changes of the apoptotic cells were observed using phase contrast inverted microscope (Leica DMI 3000B, Germany) at 200x magnifications.

MCF-7 cells [2] = assay: Morphological changes by phase contrast inverted microscope, MCF-7; format: cell-based, human; details: MCF-7, 48 h, 12.5-50 μg/mL, phase contrast 200x
Method: as §1

Ca Ski cells = assay: Morphological changes by phase contrast inverted microscope, Ca Ski; format: cell-based, human; details: 48 h, 12.5-50 μg/mL, phase contrast 200x
Method: as §1

MCF-7 cells [3] = assay: Hoechst 33342/PI dual staining, quantification of apoptotic/necrotic cells, MCF-7; format: cell-based, human; details: 48 h
Method: Briefly, cells were grown on tissue culture dishes and treated with or without tested compounds at concentrations of 12.5, 25, 40, and 50 μg/mL. After 48 hours, the cells were harvested and washed with cold PBS to a density of 5 × 10^5 cells/mL. The cells were suspended in Hoechst 33342 solution (10 μg/mL) and were incubated at 37°C in CO2 for 7 minutes. After incubation with Hoechst 33342, the cells were counter stained with propidium iodide (2.5 μg/mL). The samples were maintained in the dark for 15 minutes. After staining, an aliquot of cell suspension was placed on a glass microscope slides. The slides were observed immediately under inverted fluorescence microscope (DM16000B, Germany) using UV/488 dual excitation and the fluorescence was measured at ~460 nm emission of Hoechst 33342 dye and >575 nm emission of propidium iodide at 630x magnification. At least 200 total target cells were counted and the numbers of each four cellular states were recorded and analyzed using fluorescence microscopy for quantification of apoptosis and necrosis. The experiment was conducted in triplicates. The percentages of apoptotic and necrotic cells were determined according to the following formula [27]: (1) Percentage of Apoptotic Cells (%) =(LA+DA)/ LN+LA+DN+DA×100,Percentage of Necrotic Cells (%) = DN/LN+LA+DN+DA×100, where LN are live target cells with normal nuclei (Hoechst 33342/PI: blue chromatin with organized structure), LA are live cells with apoptotic nuclei (Hoechst 33342/PI: bright blue chromatin that is highly condensed or fragmented), DN are dead cells with normal nuclei (Hoechst 33342/PI: pink chromatin with organized structure), and DA are dead cells with apoptotic nuclei (Hoechst 33342/PI: bright pink chromatin that is, highly condensed or fragmented).

For `C=C1CCC(C(C)C)=CC2C1CC[C@@]2(C)O` (stereo partly drawn) [Alismol, alismol], the IC50 [1] was 8.7 ± 1.1 µg/mL (≈ 39.5 µM), the “morphological changes (in words)” value (HCT-116 cells) was “typical apoptotic features” and the “morphological changes (in words)” value (MCF-7 cells [2]) was “typical apoptotic features”. For the same compound, the “morphological changes (in words)” value (Ca Ski cells) was “typical apoptotic features”, the “Percentage of apoptotic cells (%)” value (MCF-7 cells [3]; MCF-7, 12.5 μg/mL) was 6.17 ± 0.58^a % and the “Percentage of necrotic cells (%)” value (MCF-7 cells [3]; MCF-7, 12.5 μg/mL) was 3.83 ± 0.30^a %. The “Percentage of apoptotic cells (%)” value (MCF-7 cells [3]; MCF-7, 25 μg/mL) was 9.17 ± 1.5^b %, the “Percentage of necrotic cells (%)” value (MCF-7 cells [3]; MCF-7, 25 μg/mL) was 5.17 ± 1.50^b % and the “Percentage of apoptotic cells (%)” value (MCF-7 cells [3]; MCF-7, 40 μg/mL) was 43.00 ± 1.0^d %. For the same compound, the “Percentage of necrotic cells (%)” value (MCF-7 cells [3]; MCF-7, 40 μg/mL) was 38.33 ± 1.30^c %, the “Percentage of apoptotic cells (%)” value (MCF-7 cells [3]; MCF-7, 40 μg/mL, listed as alismol) was 43.0 ± 1.0% and the “Percentage of apoptotic cells (%)” value (MCF-7 cells [3]; MCF-7, 50 μg/mL) was 29.63 ± 1.1^c %. For the same compound, the “Percentage of necrotic cells (%)” value (MCF-7 cells [3]; MCF-7, 50 μg/mL) was 58.97 ± 1.10^d % and the “Percentage of necrotic cells (%)” value (MCF-7 cells [3]; MCF-7, 50 μg/mL, listed as alismol) was 59.0 ± 1.1%.

In the case of `C=CC1(C)Cc2occ(C)c2C(=O)C1C(=C)C` (stereo not drawn) [Curzerenone, curzerenone], the IC50 [1] is reported as 8.9 ± 0.7 µg/mL (≈ 38.6 µM), the “morphological changes (in words)” value (HCT-116 cells) is reported as “typical apoptotic features” and the “morphological changes (in words)” value (MCF-7 cells [2]) is reported as “typical apoptotic features”. The “morphological changes (in words)” value (Ca Ski cells) was “typical apoptotic features”, the “Percentage of apoptotic cells (%)” value (MCF-7 cells [3]; MCF-7, 12.5 μg/mL) was 4.83 ± 0.58^a % and the “Percentage of necrotic cells (%)” value (MCF-7 cells [3]; MCF-7, 12.5 μg/mL) was 2.00 ± 1.30^a %. The “Percentage of apoptotic cells (%)” value (MCF-7 cells [3]; MCF-7, 25 μg/mL) was 5.83 ± 0.76^a %, the “Percentage of necrotic cells (%)” value (MCF-7 cells [3]; MCF-7, 25 μg/mL) was 3.83 ± 0.60^b % and the “Percentage of apoptotic cells (%)” value (MCF-7 cells [3]; MCF-7, 40 μg/mL) was 53.00 ± 2.2^b %. The “Percentage of necrotic cells (%)” value (MCF-7 cells [3]; MCF-7, 40 μg/mL) was 5.50 ± 1.30^c %, the “Percentage of apoptotic cells (%)” value (MCF-7 cells [3]; MCF-7, 40 μg/mL, listed as curzerenone) was 53.0 ± 2.2% and the “Percentage of apoptotic cells (%)” value (MCF-7 cells [3]; MCF-7, 50 μg/mL) was 57.33 ± 4.65^b %. The “Percentage of necrotic cells (%)” value (MCF-7 cells [3]; MCF-7, 50 μg/mL) was 17.83 ± 2.60^d %.
